Common to all, as to experiment: Glasshouse assay for herbicidal activity (pre- and post-emergence), percentage phytotoxicity
Common to all, as to format: in vivo

The subject of experiment [1] is Alopecurus myosuroides (ALOMY). The following applies: Alopecurus myosuroides. Summed up:
(§1)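 Visually rated damage, 0–100%. PRE spray 1 d after sowing, scored 20 DAA; POST spray ~12 d, scored 15 DAA. Glasshouse at 65% humidity, 16 h day.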

Another experiment relates to Avena fatua (AVEFA). The conditions noted are these: Avena fatua. Summed up:
as §1

The test system of experiment [2] is Echinochloa crus-galli (ECHCG). The following applies: Echinochloa crus-galli. Put shortly: as §1
A further experiment relates to Lolium perenne (LOLPE). The following applies: Lolium perenne. Put shortly: as §1
The mark [3] stands for this setting: post-emergence, 360 h, 250 g/ha, post-emergence, 15 DAA, visual assessment (100%=total damage, 0%=no damage), read-out: Post-emergence herbicidal activity (percentage phytotoxicity) ALOMY POST.
Setting [4] is: pre-emergence, 480 h, 250 g/ha, pre-emergence, 20 DAA, visual assessment (100%=total damage, 0%=no damage), read-out: Pre-emergence herbicidal activity (percentage phytotoxicity) ALOMY PRE.
Setting [5] is: post-emergence, 360 h, 250 g/ha, post-emergence, 15 DAA, visual assessment (100%=total damage, 0%=no damage), read-out: Post-emergence herbicidal activity (percentage phytotoxicity) AVEFA POST.
[6] abbreviates: pre-emergence, 480 h, 250 g/ha, pre-emergence, 20 DAA, visual assessment (100%=total damage, 0%=no damage), read-out: Pre-emergence herbicidal activity (percentage phytotoxicity) AVEFA PRE.
Setting [7] is: post-emergence, 360 h, 250 g/ha, post-emergence, 15 DAA, visual assessment (100%=total damage, 0%=no damage), read-out: Post-emergence herbicidal activity (percentage phytotoxicity) ECHCG POST.
Where [8] appears, read: pre-emergence, 480 h, 250 g/ha, pre-emergence, 20 DAA, visual assessment (100%=total damage, 0%=no damage), read-out: Pre-emergence herbicidal activity (percentage phytotoxicity) ECHCG PRE.
[9] abbreviates: post-emergence, 360 h, 250 g/ha, post-emergence, 15 DAA, visual assessment (100%=total damage, 0%=no damage), read-out: Post-emergence herbicidal activity (percentage phytotoxicity) LOLPE POST.
[10] abbreviates: pre-emergence, 480 h, 250 g/ha, pre-emergence, 20 DAA, visual assessment (100%=total damage, 0%=no damage), read-out: Pre-emergence herbicidal activity (percentage phytotoxicity) LOLPE PRE.
[11] abbreviates: post-emergence, 360 h, POST-emergence, rate 250 g/ha, visual score 15 DAA (100%=total damage, 0%=no damage), read-out: Post-emergence herbicidal activity (percentage phytotoxicity) ALOMY POST.
The mark [12] stands for this setting: pre-emergence, 480 h, PRE-emergence, rate 250 g/ha, visual score 20 DAA (100%=total damage, 0%=no damage), read-out: Pre-emergence herbicidal activity (percentage phytotoxicity) ALOMY PRE.
Setting [13] is: post-emergence, 360 h, POST-emergence, rate 250 g/ha, visual score 15 DAA (100%=total damage, 0%=no damage), read-out: Post-emergence herbicidal activity (percentage phytotoxicity) AVEFA POST.
[14] abbreviates: pre-emergence, 480 h, PRE-emergence, rate 250 g/ha, visual score 20 DAA (100%=total damage, 0%=no damage), read-out: Pre-emergence herbicidal activity (percentage phytotoxicity) AVEFA PRE.
Setting [15] is: post-emergence, 360 h, POST-emergence, rate 250 g/ha, visual score 15 DAA (100%=total damage, 0%=no damage), read-out: Post-emergence herbicidal activity (percentage phytotoxicity) ECHCG POST.
[16] abbreviates: pre-emergence, 480 h, PRE-emergence, rate 250 g/ha, visual score 20 DAA (100%=total damage, 0%=no damage), read-out: Pre-emergence herbicidal activity (percentage phytotoxicity) ECHCG PRE.
[17] abbreviates: post-emergence, 360 h, POST-emergence, rate 250 g/ha, visual score 15 DAA (100%=total damage, 0%=no damage), read-out: Post-emergence herbicidal activity (percentage phytotoxicity) LOLPE POST.
Setting [18] is: pre-emergence, 480 h, PRE-emergence, rate 250 g/ha, visual score 20 DAA (100%=total damage, 0%=no damage), read-out: Pre-emergence herbicidal activity (percentage phytotoxicity) LOLPE PRE.
Setting [19] is: post-emergence, 360 h, Rate 250 g/ha, post-emergence, assessed visually 15 DAA, 100%=total damage, 0%=no damage, read-out: Post-emergence herbicidal activity (percentage phytotoxicity) ALOMY POST.
The mark [20] stands for this setting: pre-emergence, 480 h, Rate 250 g/ha, pre-emergence, assessed visually 20 DAA, 100%=total damage, 0%=no damage, read-out: Pre-emergence herbicidal activity (percentage phytotoxicity) ALOMY PRE.
Where [21] appears, read: post-emergence, 360 h, Rate 250 g/ha, post-emergence, assessed visually 15 DAA, 100%=total damage, 0%=no damage, read-out: Post-emergence herbicidal activity (percentage phytotoxicity) AVEFA POST.
Where [22] appears, read: pre-emergence, 480 h, Rate 250 g/ha, pre-emergence, assessed visually 20 DAA, 100%=total damage, 0%=no damage, read-out: Pre-emergence herbicidal activity (percentage phytotoxicity) AVEFA PRE.
The mark [23] stands for this setting: post-emergence, 360 h, Rate 250 g/ha, post-emergence, assessed visually 15 DAA, 100%=total damage, 0%=no damage, read-out: Post-emergence herbicidal activity (percentage phytotoxicity) ECHCG POST.
The mark [24] stands for this setting: pre-emergence, 480 h, Rate 250 g/ha, pre-emergence, assessed visually 20 DAA, 100%=total damage, 0%=no damage, read-out: Pre-emergence herbicidal activity (percentage phytotoxicity) ECHCG PRE.
[25] abbreviates: post-emergence, 360 h, Rate 250 g/ha, post-emergence, assessed visually 15 DAA, 100%=total damage, 0%=no damage, read-out: Post-emergence herbicidal activity (percentage phytotoxicity) LOLPE POST.
Where [26] appears, read: pre-emergence, 480 h, Rate 250 g/ha, pre-emergence, assessed visually 20 DAA, 100%=total damage, 0%=no damage, read-out: Pre-emergence herbicidal activity (percentage phytotoxicity) LOLPE PRE.

Like-named read-outs stand apart in the source and are kept apart here.

Turning to `Cc1cc(-c2ncc(F)cc2F)cc(C)c1C1C(=O)CC(CC(=O)NCc2cc(F)cc(F)c2)C1=O` (stereo not shown) [Compound B71], the pest or weed control at 250 g/ha was 100% in experiment [1] (setting [3]); 90% in experiment [1] (setting [4]); 100% in the experiment on Avena fatua (AVEFA) (setting [5]); 90% with Avena fatua (AVEFA) (setting [6]); 100% in experiment [2] (setting [7]); 100% in experiment [2] (setting [8]). Also, the figures for the pest or weed control at 250 g/ha in the experiment with Lolium perenne (LOLPE) (setting [9]) and with Lolium perenne (LOLPE) (setting [10]) were 100% and 90%, respectively.

Regarding `CC(C)=CNC(=O)CC1CC(=O)C(c2c(C)cc(-c3ccc(C#N)cn3)cc2C)C1=O` (stereo not shown) [Compound B319], the pest or weed control at 250 g/ha in experiment [1] (setting [11]) is 70%; in experiment [1] (setting [12]) it was 0%; in the experiment with Avena fatua (AVEFA) (setting [13]) it was 80%; in the experiment with Avena fatua (AVEFA) (setting [14]), 0%; in experiment [2] (setting [15]), 100%; in experiment [2] (setting [16]) it was 0%. The pest or weed control at 250 g/ha in the experiment with Lolium perenne (LOLPE) (setting [17]) worked out at 60%; with Lolium perenne (LOLPE) (setting [18]), 0%.

With `COCCCNC(=O)CC1CC(=O)C(c2c(C)cc(-c3ncc(F)cn3)cc2C)C1=O` (stereo not shown) [Compound B106], the pest or weed control at 250 g/ha in experiment [1] (setting [3]) stood at 100%; in experiment [1] (setting [4]), 80%; in the experiment with Avena fatua (AVEFA) (setting [5]), 100%; with Avena fatua (AVEFA) (setting [6]) it was 70%; in experiment [2] (setting [7]), 100%; in experiment [2] (setting [8]) it was 100%. Also, the pest or weed control at 250 g/ha was 100% in the experiment with Lolium perenne (LOLPE) (setting [9]) and 90% in the experiment with Lolium perenne (LOLPE) (setting [10]).

Turning to `CC#Cc1cc(C)c(C2C(=O)CC(CC(=O)NCC(C)C)C2=O)c(C)c1` (stereo not shown) [Compound A30], the pest or weed control at 250 g/ha (in experiment [1] (setting [19]); in experiment [1] (setting [20]); in the experiment with Avena fatua (AVEFA) (setting [21]); with Avena fatua (AVEFA) (setting [22]); in experiment [2] (setting [23]); in experiment [2] (setting [24])) was 100% each time. Also, the pest or weed control at 250 g/ha in the experiment on Lolium perenne (LOLPE) (setting [25]) and in the experiment on Lolium perenne (LOLPE) (setting [26]) was 100% each time.

For `Cc1cc(-c2ncc(F)cc2F)cc(C)c1C1C(=O)CC(CC(=O)N(C)C(C)(C)C)C1=O` (stereo not shown) [Compound B267], the pest or weed control at 250 g/ha in experiment [1] (setting [11]) was determined as 100%; in experiment [1] (setting [12]), 100%; in the experiment on Avena fatua (AVEFA) (setting [13]) it was 100%; in the experiment on Avena fatua (AVEFA) (setting [14]) it was 80%; in experiment [2] (setting [15]), 100%; in experiment [2] (setting [16]), 100%. The pest or weed control at 250 g/ha in the experiment with Lolium perenne (LOLPE) (setting [17]) and in the experiment with Lolium perenne (LOLPE) (setting [18]) was 100% each time.

With `CC#Cc1cc(C)c(C2C(=O)CC(CC(=O)NCCCC)C2=O)c(CC)c1` (stereo not shown) [Compound A51], the pest or weed control at 250 g/ha (in experiment [1] (setting [19]); in experiment [1] (setting [20]); with Avena fatua (AVEFA) (setting [21]); in the experiment on Avena fatua (AVEFA) (setting [22]); in experiment [2] (setting [23]); in experiment [2] (setting [24])) was 100% throughout. For the same molecule, the pest or weed control at 250 g/ha in the experiment on Lolium perenne (LOLPE) (setting [25]) and with Lolium perenne (LOLPE) (setting [26]) was 100% each time.

Turning to `CCCCNC(=O)CC1CC(=O)C(c2c(C)cc(-c3ncc(Cl)cc3F)cc2C)C1=O` (stereo not shown) [Compound A44], the pest or weed control at 250 g/ha (in experiment [1] (setting [19]); in experiment [1] (setting [20]); in the experiment with Avena fatua (AVEFA) (setting [21]); in the experiment on Avena fatua (AVEFA) (setting [22]); in experiment [2] (setting [23]); in experiment [2] (setting [24])) was 100% throughout. Besides, the pest or weed control at 250 g/ha in the experiment with Lolium perenne (LOLPE) (setting [25]) and in the experiment with Lolium perenne (LOLPE) (setting [26]) was 100% in each case.

Consider `C=C(C)CNC(=O)CC1CC(=O)C(c2c(C)cc(-c3ncc(C#N)cn3)cc2C)C1=O` (stereo not shown) [Compound B287], for which the pest or weed control at 250 g/ha in experiment [1] (setting [11]) was 90%; in experiment [1] (setting [12]), 90%; in the experiment on Avena fatua (AVEFA) (setting [13]) it was 100%; in the experiment on Avena fatua (AVEFA) (setting [14]), 90%; in experiment [2] (setting [15]), 100%; in experiment [2] (setting [16]) it was 100%. The pest or weed control at 250 g/ha with Lolium perenne (LOLPE) (setting [17]) and with Lolium perenne (LOLPE) (setting [18]) was 90% each time.

(Values after patent US10206394B2, “Herbicidal compounds” (Syngenta Participations AG, priority 2014, dated 2019).)
